{
  "source": "patent US20240245639A1",
  "about": "“Dermal Application of Retinoic Acid Receptor Agonists for Amelioration of Hypertrophic Scar” (Northwestern University, priority 2023, published 2024)",
  "assay_type_in_all_cases": "cell-based",
  "key": {"[1]": {"system": "primary human foreskin fibroblasts", "experiment": "In vitro single-concentration screen of predicted compounds (brightfield, qRT-PCR)", "protocol": "In order to initially test the identified drugs, we applied each drug or DMSO vehicle control at a single concentration to primary human foreskin fibroblasts in vitro for 24 hours, before harvesting and measuring relative expression of selected myofibroblast marker genes by qRT-PCR. […] None of the drugs tested appeared to affect expression of TGFB1 (the gene encoding transforming growth factor-beta 1) at the examined concentrations.\nMATERIALS AND METHODS Materials Emetine dihydrochloride hydrate, homoharringtonine, Ch55 and panobinostat were acquired from Fisher Scientific (Waltham, MA). AZD-7762 was acquired from Selleck Chemicals (Houston, TX). For in vitro work, emetine dihydrochloride hydrate was dissolved in sterile H2O at 50 mM. Homoharringtonine was dissolved in DMSO at 10 mg/mL. Panobinostat was dissolved in DMSO at 425 μM. […] AZD-7762 was dissolved in DMSO at 500 μM. Recombinant human TGF-β1 (Sigma-Aldrich) was dissolved in sterile H2O at 50 µg/mL. All-trans-retinoic acid (Thermo Scientific) was dissolved in DMSO at 10 mM."}, "[2]": {"system": "primary human foreskin fibroblasts", "experiment": "Antagonism of fibroblast activation in presence or absence of TGF-β1 (qRT-PCR, Western blot, immunofluorescence)", "settings": "10,000 nM ATRA, ± 10 ng/mL TGF-β1, 48 hours", "protocol": "RAR Agonist all-Trans Retinoic Acid Antagonizes Myofibroblast Activation We then wished to see whether another RAR agonist could antagonize myofibroblast activation.\n(§1) Cells cultured on glass coverslips were fixed in 4% paraformaldehyde for 30 minutes at room temperature. Cells were blocked in 10% normal goat serum and incubated overnight at 4° C. in solutions of the following primary antibodies: Rabbit monoclonal α-human α-SMA (1:500 dilution, catalog #192455, Cell Signaling Technology, Danvers M A) or mouse α-human COL1A1 (1:1000 dilution, catalog #M-38c, DSHB, Iowa City, IA). The following day, cells were incubated in 1:200 diluted solutions of goat-α-rabbit IgG or donkey-α-mouse IgG Alexafluor 488-conjugated secondary antibodies (A11034 or A21202, Invitrogen) containing Alexafluor 568-conjugated phalloidin (A12380, Invitrogen) for 2 hours in the dark at room temperature, before a 20 minute counterstain in 500 ng/mL DAPI. Coverslips were mounted onto slides in the dark using Fluoro Gel with DABCO (Electron Microscopy Sciences, Hatfield, PA) and imaged on an EVOS-FL imaging system (ThermoFisher).\nHarvested scar tissues were incubated in 0.5M ammonium thiocyanate for 20 minutes, followed by mechanical separation of dermis and epidermis using a dissecting microscope. Isolated dermal tissues were minced with a razor blade, submerged in RIPA buffer, and homogenized in the presence of 2 mm zirconia beads using a MagNA Lyser (Roche, Basel, Switzerland). Alternatively, cell culture samples were detached from the culture surface by trypsinization, collected by centrifugation, and lysed in RIPA buffer. Protein concentrations of cell culture and tissue samples were determined using a DC protein assay (BioRad). Five micrograms of total protein were loaded onto polyacrylamide gels and subjected to SDS-PAGE before transfer to nitrocellulose membranes, blocking with 5% dry milk in TBS-T, and probing with target-specific primary antibodies overnight. Species-specific secondary antibody solutions were added to membranes, and chemiluminescent signal was developed with Amersham ECL Western blotting detection reagent using X-ray film.\nPrimary antibodies used were rabbit anti-α-SMA (1:1000, 19245S, Cell Signaling Technology), rabbit anti-collagen I (1:1000, ab34710, Abcam), mouse anti-collagen I (1:1000, C2456, Sigma-Aldrich), and mouse anti-GAPDH (1:5000, MA5-15738, Invitrogen). Secondary antibodies utilized were HRP goat anti-rabbit IgG(H+L) and horse anti-mouse IgG(H+L) (Vector Laboratories, Newark, CA), both used at 1:5000."}, "[3]": {"system": "primary human keloid fibroblasts", "experiment": "Collagen I deposition in keloid fibroblasts (Western blot, immunofluorescence)", "settings": "keloid fibroblasts, ATRA, data not shown", "protocol": "(§2) Since overproduction of collagen is characteristic of fibroblasts in tissue fibrosis, including hypertrophic scar and keloid, we wished to determine whether Ch55 also affects deposition of collagen I by these fibroblasts.\nas §1, with “Coverslips were mounted onto slides in the dark using Fluoro Gel with DABCO (Electron Microscopy Sciences, Hatfield, PA) and imaged on an EVOS-FL imaging system (ThermoFisher).” left out\n(§3) Harvested scar tissues were incubated in 0.5M ammonium thiocyanate for 20 minutes, followed by mechanical separation of dermis and epidermis using a dissecting microscope. […] Protein concentrations of cell culture and tissue samples were determined using a DC protein assay (BioRad). […]"}, "[4]": {"system": "primary human HTS fibroblasts", "experiment": "Collagen I deposition in hypertrophic scar fibroblasts (Western blot, immunofluorescence)", "settings": "HTS fibroblasts, ATRA, data not shown", "protocol": "as §2\nas §1, with “Coverslips were mounted onto slides in the dark using Fluoro Gel with DABCO (Electron Microscopy Sciences, Hatfield, PA) and imaged on an EVOS-FL imaging system (ThermoFisher).” left out\nas §3"}, "[5]": {"settings": "single concentration, 24 hours, vs vehicle"}},
  "note": "Where two headings read alike, the source gives them in different places.",
  "data": [
    {"smiles": "COC(=O)C[C@](O)(CCCC(C)(C)O)C(=O)O[C@@H]1C(OC)=C[C@]23CCCN2CCc2cc4c(cc2[C@H]13)OCO4", "note": "[homoharringtonine]", "values": [
      {"measurement": "detachment of cells from the tissue culture plate", "setting": "[1]", "result": "notable detachment of cells"}
    ]},
    {"smiles": "CC[C@H]1CN2CCc3cc(OC)c(OC)cc3[C@@H]2C[C@@H]1C[C@H]1NCCc2cc(OC)c(OC)cc21", "note": "[emetine]", "values": [
      {"measurement": "detachment of cells from the tissue culture plate", "setting": "[1]; single concentration, 24 hours", "result": "notable detachment of cells"},
      {"measurement": "myofibroblast activation", "setting": "[1]; single concentration, 24 hours", "result": "induced myofibroblast activation"},
      {"measurement": "CCN2 expression (qRT-PCR)", "setting": "[1]; [5]", "result": "increased expression"},
      {"measurement": "MMP1 expression (qRT-PCR)", "setting": "[1]; [5]", "result": "decreased expression"},
      {"measurement": "SERPINE1 expression (qRT-PCR)", "setting": "[1]; [5]", "result": "increased expression"}
    ]},
    {"smiles": "CC1=C(/C=C/C(C)=C/C=C/C(C)=C/C(=O)O)C(C)(C)CCC1", "note": "[ATRA, all-trans retinoic acid]", "values": [
      {"measurement": "F-actin stress fiber formation", "setting": "[2]", "result": "substantially decreased"},
      {"measurement": "collagen I protein (Western blot, immunofluorescence)", "setting": "[2]", "result": "substantially decreased"},
      {"measurement": "α-SMA protein (Western blot, immunofluorescence)", "setting": "[2]", "result": "substantially decreased"},
      {"measurement": "expression of collagen I", "setting": "[3]", "result": "dramatically decreased"},
      {"measurement": "expression of collagen I", "setting": "[4]", "result": "dramatically decreased"}
    ]},
    {"smiles": "NC(=O)Nc1cc(-c2cccc(F)c2)sc1C(=O)N[C@H]1CCCNC1", "note": "[AZD-7762]", "values": [
      {"measurement": "downregulation of myofibroblast-associated genes", "setting": "[1]; single concentration, 24 hours", "result": "neither did it appear to downregulate"},
      {"measurement": "myofibroblast activation", "setting": "[1]; single concentration, 24 hours", "result": "did not show a similar effect of fibroblast activation"}
    ]}
  ]
}
